From ChEMBL document CHEMBL1201862, “PubChem BioAssay data set” (2004)
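Five concentrations, 48 hours, 96-well plates. GI50 is the concentration that inhibits growth by half.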 Calls of active or inactive are those of the source. Cut-off read from the data, not from the text of the source: active = GI50 up to about 1.1 µM and inactive = higher.

Tests used:
Assay in all cases: NCI tumour cell line growth inhibition, 48 h
[1] = tested on: NCI-H23
[2] = tested on: SNB-75
[3] = tested on: RPMI-8226
[4] = tested on: HCC 2998
[5] = tested on: EKVX
[6] = tested on: COLO 205
[7] = tested on: HT-29
[8] = tested on: SK-MEL-5
[9] = tested on: U-251
[10] = tested on: HOP-92
[11] = tested on: ACHN
[12] = tested on: SNB-19
[13] = tested on: HCT-116
[14] = tested on: CCRF-CEM
[15] = tested on: SR

Measured: GI50

CN1C(=O)C(=O)N2c3ccc(Cl)cc3C3(c4ccccc4)N=CC12O3 (stereo not given)
inactive: [1] 4.13 µM | [2] 3.6 µM | [3] 2.19 µM | [4] 14.7 µM | [5] 8.87 µM | [6] 4.02 µM | [7] 4.55 µM | [8] 5.52 µM | [9] 9.48 µM | [10] 2.39 µM | [11] 4.7 µM | [12] 12.9 µM | [13] 3.9 µM | [14] 3.03 µM

COc1ccc(O)c(C#N)c1C#N
inactive: [1] > 100 µM | [2] > 100 µM | [3] > 100 µM | [4] > 100 µM | [5] > 100 µM | [6] > 100 µM | [7] > 100 µM | [8] > 100 µM | [9] > 100 µM | [11] > 100 µM | [12] > 100 µM | [13] > 100 µM | [14] > 100 µM

CCOC(=N)CC(=O)Nc1ccccc1CC
inactive: [1] > 100 µM | [2] > 100 µM | [4] 98.9 µM | [5] > 100 µM | [6] > 100 µM | [7] > 100 µM | [8] > 100 µM | [9] > 100 µM | [11] > 100 µM | [12] > 100 µM | [13] > 100 µM | [14] > 100 µM | [15] > 100 µM

Cc1ccc(NC(=O)CCC(=O)C(C#N)c2ccc(Cl)cc2)cc1C (stereo not given)
inactive: [1] > 100 µM | [2] > 100 µM | [3] > 100 µM | [4] > 100 µM | [5] > 100 µM | [7] > 100 µM | [8] > 100 µM | [9] > 100 µM | [10] > 100 µM | [11] > 100 µM | [12] > 100 µM | [13] > 100 µM | [14] > 100 µM

C[C@@H]1C(=O)CC2C(C)(C)CCC[C@]2(C)[C@@]12CC[C@]1(C=COC1)O2 (stereo not given in full)
inactive: [4] 38.1 µM | [5] 42.9 µM | [6] 32.3 µM | [7] 28.2 µM | [10] 13.8 µM | [11] 32.5 µM | [12] 61 µM | [13] 30.2 µM | [14] 23.4 µM | [15] 22 µM

CC(C(=O)n1nnc2ccccc21)N(c1ccccc1)c1ccccc1 (stereo not given)
inactive: [1] 56.8 µM | [2] 69.5 µM | [3] 52.7 µM | [4] > 100 µM | [5] 68.2 µM | [6] > 100 µM | [7] > 100 µM | [8] 42.9 µM | [9] 43.5 µM | [11] > 100 µM | [12] 48.3 µM | [13] 89.5 µM | [14] 83.4 µM | [15] 78.3 µM

Cc1cc(=O)oc2cc(OCCCOc3ccc4c(C)cc(=O)oc4c3)ccc12
inactive: [1] > 100 µM | [2] 38.6 µM | [3] > 100 µM | [4] > 100 µM | [5] > 100 µM | [6] > 100 µM | [7] > 100 µM | [8] > 100 µM | [9] > 100 µM | [11] > 100 µM | [12] 57.9 µM | [13] > 100 µM | [14] > 100 µM | [15] > 100 µM

CN(C)CCNC(=O)Cc1ccccc1Nc1c(Cl)cccc1Cl
inactive: [1] 18.4 µM | [2] 12.7 µM | [3] 16.6 µM | [4] 11.5 µM | [5] 17.4 µM | [6] 16.4 µM | [7] 10.3 µM | [8] 15 µM | [9] 10.9 µM | [11] 19 µM | [12] 17.2 µM | [13] 17.2 µM | [14] 14.3 µM | [15] 15.2 µM

c1ccc(Nc2nnc(CSc3nc(-c4ccccc4)c(-c4ccccc4)[nH]3)s2)cc1
inactive: [1] 21.3 µM | [2] 44.4 µM | [3] 11.5 µM | [5] 19.4 µM | [6] 12.3 µM | [7] 15.2 µM | [8] 15.2 µM | [9] 13.7 µM | [10] 11.1 µM | [11] 26.3 µM | [13] 17.2 µM | [14] 15.5 µM | [15] 20.6 µM

O=C(CCn1[nH]c(=O)c(Cl)c(Cl)c1=O)NNC(=O)C[n+]1ccccc1
inactive: [1] > 100 µM | [2] 52.4 µM | [3] > 100 µM | [4] > 100 µM | [5] > 100 µM | [6] > 100 µM | [7] > 100 µM | [8] > 100 µM | [11] > 100 µM | [12] > 100 µM | [14] > 100 µM

CN(C)/C(F)=P\C(F)(F)F (stereo not given)
inactive: [1] > 100 µM | [2] > 100 µM | [3] > 100 µM | [4] > 100 µM | [5] > 100 µM | [6] > 100 µM | [7] > 100 µM | [8] > 100 µM | [9] > 100 µM | [10] > 100 µM | [11] > 100 µM | [12] > 100 µM | [13] > 100 µM | [14] > 100 µM

CCOC(=O)Cc1nc2ccccc2s1
inactive: [1] 15.6 µM | [2] 29.3 µM | [4] 88.1 µM | [5] 39.4 µM | [6] 38.6 µM | [7] 19.6 µM | [8] 20.6 µM | [9] 17 µM | [11] 17.1 µM | [12] 44.5 µM | [13] 18.2 µM | [14] 18.8 µM | [15] 20.1 µM

O=C(O)CN(c1ccccc1)S(=O)(=O)c1ccc(NC(=O)c2ccccc2)cc1
inactive: [1] > 100 µM | [2] > 100 µM | [3] > 100 µM | [5] > 100 µM | [6] > 100 µM | [7] > 10 µM | [9] > 100 µM | [10] > 100 µM | [11] > 100 µM | [12] > 100 µM | [14] > 100 µM

COC(=O)c1c(-c2cc(OC)c(OC)c(OC)c2)oc2ccccc2c1=O
inactive: [1] > 100 µM | [2] 58.7 µM | [3] 36.2 µM | [4] > 100 µM | [5] > 100 µM | [6] 97.7 µM | [7] > 100 µM | [8] 59.7 µM | [9] 87.3 µM | [10] 96.6 µM | [11] > 100 µM | [12] > 100 µM | [13] 48.3 µM | [14] 36.7 µM

COC(=O)C1CC/C(=N/c2ccc(C)cc2C)N1 (stereo not given)
inactive: [1] > 100 µM | [2] 99.3 µM | [3] > 100 µM | [4] > 100 µM | [5] > 100 µM | [6] > 100 µM | [7] > 100 µM | [8] > 100 µM | [9] > 100 µM | [10] > 100 µM | [11] > 100 µM | [12] > 100 µM | [13] > 100 µM | [14] > 100 µM
